Assay results: ChEMBL document CHEMBL1125711, “Flavins as potential antimalarials. 2. 3-Methyl-10-(substituted-phenyl) flavins” (J Med Chem, 1991)

Legend:
Format in all cases: functional
[1] = tested on: Plasmodium vinckei vinckei; assay: Increase in mean survival days of Plasmodium inoculated mice (Mus musculus) after 70 mg/Kg intraperitoneal dose
[2] = tested on: Plasmodium vinckei vinckei; assay: Antimalarial activity against Plasmodium vinckei V52 on 30 mg/kg intraperitoneal dose
Mus musculus [3] = assay: Increase in mean survival days was determined in mice after ip administration of 30 mg/kg; conditions: route intraperitoneal
[4] = tested on: Plasmodium vinckei vinckei; assay: Antimalarial activity against Plasmodium vinckei V52 on 10 mg/kg intraperitoneal dose
Mus musculus [5] = assay: Increase in mean survival days was determined in mice after ip administration of 10 mg/kg; conditions: route intraperitoneal
[6] = tested on: Plasmodium vinckei vinckei; assay: Antimalarial activity against Plasmodium vinckei V52 on 70 mg/kg intraperitoneal dose
Mus musculus [7] = assay: Increase in mean survival days was determined in mice after ip administration of 15 mg/kg; conditions: route intraperitoneal
Mus musculus [8] = assay: Antimalarial activity was evaluated against Plasmodium vinckei V52 after intraperitoneal administration at dose 15 mg/kg
Mus musculus [9] = assay: Increase in mean survival days was determined in mice after ip administration of 20 mg/kg; conditions: route intraperitoneal
[10] = tested on: Plasmodium vinckei vinckei; assay: Antimalarial activity against Plasmodium vinckei V52 after 20 mg/kg intraperitoneal dose
Mus musculus [11] = assay: Increase in mean survival days was determined in mice after ip administration of 25 mg/kg; conditions: route intraperitoneal
Mus musculus [12] = assay: Antimalarial activity was evaluated against Plasmodium vinckei vinckei V52 after intraperitoneal administration at dose 25 mg/kg
Mus musculus [13] = assay: Antimalarial activity was evaluated against Plasmodium vinckei V52 after intraperitoneal administration at dose 70 mg/kg
Mus musculus [14] = species on record: Mus musculus; assay: Effective dose required to obtain a parasitaemia of 40% 48 hours after treatment in mice
Mus musculus [15] = assay: Antimalarial activity was evaluated against Plasmodium vinckei vinckei V52 after intraperitoneal administration at dose 40 mg/kg
Mus musculus [16] = assay: Increase in mean survival days was determined in mice after ip administration of 30 mg/kg; toxic; conditions: route intraperitoneal
Mus musculus [17] = assay: Antimalarial activity was evaluated against Plasmodium vinckei V52 after intraperitoneal administration at dose 25 mg/kg
Mus musculus [18] = assay: Increase in mean survival days was determined in mice after ip administration of 25 mg/kg; toxic; conditions: route intraperitoneal
Mus musculus [19] = assay: Antimalarial activity was evaluated against Plasmodium vinckei V52 after intraperitoneal administration at dose 60 mg/kg
Mus musculus [20] = assay: Antimalarial activity was evaluated against Plasmodium vinckei V52 after intraperitoneal administration at dose 50 mg/kg
Mus musculus [21] = assay: Antimalarial activity was evaluated against Plasmodium vinckei V52 after intraperitoneal administration at dose 10 mg/kg
Mus musculus [22] = assay: Antimalarial activity was evaluated against Plasmodium vinckei V52 after intraperitoneal administration at dose 30 mg/kg
Mus musculus [23] = assay: Increase in mean survival days was determined in mice after ip administration of 50 mg/kg; conditions: route intraperitoneal
Mus musculus [24] = assay: Antimalarial activity was evaluated against Plasmodium vinckei vinckei V52 after intraperitoneal administration at dose 50 mg/kg
Mus musculus [25] = assay: Increase in mean survival days was determined in mice after ip administration of 60 mg/kg; conditions: route intraperitoneal
Mus musculus [26] = assay: Increase in mean survival days was determined in mice after ip administration of 70 mg/kg; toxic; conditions: route intraperitoneal
Mus musculus [27] = assay: Increase in mean survival days was determined in mice after ip administration of 40 mg/kg; conditions: route intraperitoneal

Cn1c(=O)nc2n(-c3ccc(C(=O)O)cc3)c3ccccc3nc-2c1=O
Mean survival days [1]: -0.2 days
Cured [2]: 0%
Mean survival days (Mus musculus [3]): 0.2 days
Cured [4]: 0%
Mean survival days (Mus musculus [5]): 0 days
Cured [6]: 0%

Cn1c(=O)nc2n(-c3ccc(Cl)c(C(F)(F)F)c3)c3ccccc3nc-2c1=O
Mean survival days (Mus musculus [7]): 0 days
Cured (Mus musculus [8]): 0%
Mean survival days [1]: 0.2 days
Cured [2]: 0%
Mean survival days (Mus musculus [3]): 0 days
Mean survival days (Mus musculus [9]): 0 days
Cured [4]: 0%
Cured [10]: 0%
Mean survival days (Mus musculus [5]): 0 days
Cured [6]: 0%

CN(C)c1ccc(-n2c3nc(=O)n(C)c(=O)c-3nc3ccccc32)cc1
Mean survival days [1]: 0 days
Mean survival days (Mus musculus [3]): 0 days
Cured [4]: 0%
Cured [10]: 0%
Mean survival days (Mus musculus [5]): 0 days
Cured [6]: 0%

CSc1cccc(-n2c3nc(=O)n(C)c(=O)c-3nc3ccccc32)c1
Mean survival days [1]: 0 days
Cured [2]: 0%
Mean survival days (Mus musculus [3]): 0 days
Mean survival days (Mus musculus [9]): 0 days
Cured [4]: 0%
Cured [10]: 0%
Mean survival days (Mus musculus [5]): 0.2 days
Cured [6]: 0%

COc1cccc(-n2c3nc(=O)n(C)c(=O)c-3nc3ccccc32)c1
Mean survival days [1]: 0 days
Cured [2]: 0%
Mean survival days (Mus musculus [3]): 0 days
Mean survival days (Mus musculus [9]): 0 days
Cured [4]: 0%
Cured [10]: 0%
Mean survival days (Mus musculus [5]): 0 days
Cured [6]: 0%

CCc1cccc(-n2c3nc(=O)n(C)c(=O)c-3nc3ccccc32)c1
Mean survival days (Mus musculus [11]): 0 days
Mean survival days (Mus musculus [7]): 0 days
Mean survival days [1]: 0.3 days
Cured [2]: 0%
Mean survival days (Mus musculus [3]): 0 days
Cured (Mus musculus [12]): 0%
Mean survival days (Mus musculus [9]): 0 days
Cured (Mus musculus [13]): 0%
Cured [4]: 0%
Cured [10]: 0%

Cn1c(=O)nc2n(-c3ccc(O)cc3)c3ccccc3nc-2c1=O
Mean survival days [1]: 0 days
Mean survival days (Mus musculus [3]): 0.2 days
Cured [4]: 0%
Cured [10]: 0%
Mean survival days (Mus musculus [5]): 0 days
Cured [6]: 0%

Cn1c(=O)nc2n(-c3cc(Cl)cc(Cl)c3)c3ccccc3nc-2c1=O
ED40 (Mus musculus [14]): 40.2 µmol/kg
Cured (Mus musculus [15]): 100%
Cured (Mus musculus [8]): 100%
Mean survival days [1]: 16.5 days
Cured [2]: 100%
Cured (Mus musculus [12]): 100%
Cured (Mus musculus [13]): 60%
Cured [4]: 100%
Cured [10]: 100%

Cn1c(=O)nc2n(-c3cc(C(F)(F)F)ccc3Cl)c3ccccc3nc-2c1=O
Mean survival days (Mus musculus [7]): 0.2 days
Cured (Mus musculus [8]): 0%
Mean survival days (Mus musculus [16]): -0.4 days
Cured [2]: 0%
Mean survival days (Mus musculus [9]): 0 days
Cured [4]: 0%
Cured [10]: 0%
Mean survival days (Mus musculus [5]): 0 days
Cured (Mus musculus [17]): 0%
Mean survival days (Mus musculus [18]): 0 days

Cn1c(=O)nc2n(-c3ccc(C(F)(F)F)cc3)c3ccccc3nc-2c1=O
Cured (Mus musculus [19]): 100%
ED40 (Mus musculus [14]): 135 µmol/kg
Cured [2]: 80%
Mean survival days (Mus musculus [3]): 2 days
Mean survival days (Mus musculus [9]): 0 days
Cured [4]: 0%
Cured [10]: 0%
Cured (Mus musculus [20]): 100%
Mean survival days (Mus musculus [5]): 0 days
Cured [6]: 100%

Cn1c(=O)nc2n(-c3ccc(C#N)cc3)c3ccccc3nc-2c1=O
Mean survival days [1]: 0 days
Cured (Mus musculus [21]): 0%
Mean survival days (Mus musculus [3]): 0 days
Cured (Mus musculus [13]): 0%
Mean survival days (Mus musculus [5]): 0 days
Cured (Mus musculus [22]): 0%

Cn1c(=O)nc2n(-c3ccc(Cl)cc3Cl)c3ccccc3nc-2c1=O
Mean survival days (Mus musculus [7]): 0.5 days
Cured (Mus musculus [8]): 0%
Mean survival days (Mus musculus [16]): -1 days
Cured [2]: 0%
Cured (Mus musculus [12]): 0%
Cured [4]: 0%
Mean survival days (Mus musculus [5]): 1.7 days
Mean survival days (Mus musculus [18]): -1.2 days

Cc1cccc(-n2c3nc(=O)n(C)c(=O)c-3nc3ccccc32)c1
Mean survival days (Mus musculus [11]): 0 days
Mean survival days (Mus musculus [7]): 0 days
Cured (Mus musculus [8]): 0%
Mean survival days [1]: 0.3 days
Cured [2]: 0%
Mean survival days (Mus musculus [3]): 0 days
Mean survival days (Mus musculus [9]): 0.5 days
Cured [4]: 0%
Cured [10]: 0%
Mean survival days (Mus musculus [23]): 0.5 days
Cured (Mus musculus [20]): 0%
Mean survival days (Mus musculus [5]): 0.8 days
Cured (Mus musculus [17]): 0%
Cured [6]: 0%

Cn1c(=O)nc2n(-c3ccc(Cl)c(Cl)c3)c3ccccc3nc-2c1=O
Cured (Mus musculus [24]): 0%
Mean survival days [1]: 0 days
Mean survival days (Mus musculus [3]): 0 days
Cured (Mus musculus [13]): 0%
Cured [4]: 0%
Cured [10]: 0%
Mean survival days (Mus musculus [23]): 0 days
Mean survival days (Mus musculus [5]): 0 days

CCCCc1ccc(-n2c3nc(=O)n(C)c(=O)c-3nc3ccccc32)cc1
Mean survival days (Mus musculus [11]): 0.1 days
Cured (Mus musculus [24]): 0%
Mean survival days (Mus musculus [7]): 0 days
Cured (Mus musculus [8]): 0%
Mean survival days [1]: 0.5 days
Cured [2]: 0%
Mean survival days (Mus musculus [3]): 0 days
Cured (Mus musculus [12]): 0%
Mean survival days (Mus musculus [9]): 0 days
Cured (Mus musculus [13]): 0%
Cured [4]: 0%
Cured [10]: 0%
Mean survival days (Mus musculus [23]): 0 days
Mean survival days (Mus musculus [5]): 0 days

Cn1c(=O)nc2n(-c3ccc(Cl)cc3F)c3ccccc3nc-2c1=O
Mean survival days (Mus musculus [16]): -2 days
Cured [2]: 0%
Mean survival days (Mus musculus [9]): 4 days
Cured [4]: 0%
Cured [10]: 0%
Mean survival days (Mus musculus [5]): 1 days

Cn1c(=O)nc2n(-c3cccc(Cl)c3)c3ccccc3nc-2c1=O
Cured (Mus musculus [19]): 50%
Mean survival days (Mus musculus [25]): 0.5 days
Cured [2]: 0%
Mean survival days (Mus musculus [3]): 0 days
Cured [4]: 0%
Mean survival days (Mus musculus [23]): 0.4 days
Cured (Mus musculus [20]): 0%
Mean survival days (Mus musculus [5]): 0 days
Cured [6]: 100%

Cn1c(=O)nc2n(-c3ccccc3Cl)c3ccccc3nc-2c1=O
Mean survival days (Mus musculus [16]): -0.3 days
Cured [2]: 0%
Mean survival days (Mus musculus [26]): -2 days
Cured [4]: 0%
Mean survival days (Mus musculus [5]): 0 days
Cured [6]: 0%

CCc1ccc(-n2c3nc(=O)n(C)c(=O)c-3nc3ccccc32)cc1
ED40 (Mus musculus [14]): 281 µmol/kg
Mean survival days [1]: -0.4 days
Cured [2]: 0%
Mean survival days (Mus musculus [3]): 0 days
Mean survival days (Mus musculus [9]): 0.3 days
Cured [4]: 0%
Cured [10]: 0%
Mean survival days (Mus musculus [5]): 0.2 days
Cured [6]: 0%

Cc1cc(Cl)ccc1-n1c2nc(=O)n(C)c(=O)c-2nc2ccccc21
Mean survival days (Mus musculus [16]): -2 days
Cured [2]: 0%
Cured (Mus musculus [12]): 0%
Mean survival days (Mus musculus [9]): 1.2 days
Cured [4]: 0%
Cured [10]: 0%
Mean survival days (Mus musculus [5]): 0 days
Mean survival days (Mus musculus [18]): -1.5 days

Cc1ccc(-n2c3nc(=O)n(C)c(=O)c-3nc3ccccc32)cc1Cl
ED40 (Mus musculus [14]): 456 µmol/kg
Mean survival days [1]: 0 days
Mean survival days (Mus musculus [3]): 0 days
Cured [4]: 0%
Cured [10]: 0%
Mean survival days (Mus musculus [5]): 0 days
Cured [6]: 0%

Cn1c(=O)nc2n(-c3ccc(F)c(F)c3)c3ccccc3nc-2c1=O
Cured [2]: 0%
Mean survival days (Mus musculus [3]): 0 days
Mean survival days (Mus musculus [9]): -0.5 days
Mean survival days (Mus musculus [26]): -1 days
Cured [4]: 0%
Cured [10]: 0%
Mean survival days (Mus musculus [5]): 0 days
Cured [6]: 0%

Cn1c(=O)nc2n(-c3cccc(F)c3)c3ccccc3nc-2c1=O
Mean survival days (Mus musculus [11]): 0 days
Cured (Mus musculus [15]): 0%
Mean survival days (Mus musculus [7]): 0.2 days
Mean survival days (Mus musculus [27]): 0.8 days
Cured (Mus musculus [8]): 0%
Cured [2]: 0%
Mean survival days (Mus musculus [3]): 0.2 days
Mean survival days (Mus musculus [9]): 0 days
Mean survival days (Mus musculus [26]): -1 days
Cured [4]: 0%
Cured [10]: 0%
Mean survival days (Mus musculus [23]): 0 days
Cured (Mus musculus [20]): 20%
Mean survival days (Mus musculus [5]): 0.2 days
Cured (Mus musculus [17]): 0%
Cured [6]: 0%

Cc1ccc(-n2c3nc(=O)n(C)c(=O)c-3nc3ccccc32)cc1
Mean survival days [1]: 0 days
Cured [2]: 0%
Mean survival days (Mus musculus [3]): 0.2 days
Cured (Mus musculus [13]): 0%
Cured [4]: 0%
Mean survival days (Mus musculus [23]): 0.3 days
Cured (Mus musculus [20]): 0%
Mean survival days (Mus musculus [5]): 0 days

CSc1ccc(-n2c3nc(=O)n(C)c(=O)c-3nc3ccccc32)cc1
Mean survival days [1]: 0 days
Cured [2]: 0%
Mean survival days (Mus musculus [3]): 0.5 days
Mean survival days (Mus musculus [9]): 0.5 days
Cured [4]: 0%
Cured [10]: 0%
Mean survival days (Mus musculus [5]): 0.2 days
Cured [6]: 0%
